Test results published in article PMC3038857, “Using Nuclear Receptor Activity to Stratify Hepatocarcinogens” (PLoS ONE, 2011).

Key:
[1] = target: T1, PPARG (peroxisome proliferator-activated receptor gamma) (Homo sapiens, UniProt P37231); experiment: ATG_PPARg_TRANS: Factorial reporter gene assay (HepG2); assay type: cell-based; details: HepG2
T1 construct: expressed in transfected cells; host or cells: HepG2
T1 sequence (P37231 1-505): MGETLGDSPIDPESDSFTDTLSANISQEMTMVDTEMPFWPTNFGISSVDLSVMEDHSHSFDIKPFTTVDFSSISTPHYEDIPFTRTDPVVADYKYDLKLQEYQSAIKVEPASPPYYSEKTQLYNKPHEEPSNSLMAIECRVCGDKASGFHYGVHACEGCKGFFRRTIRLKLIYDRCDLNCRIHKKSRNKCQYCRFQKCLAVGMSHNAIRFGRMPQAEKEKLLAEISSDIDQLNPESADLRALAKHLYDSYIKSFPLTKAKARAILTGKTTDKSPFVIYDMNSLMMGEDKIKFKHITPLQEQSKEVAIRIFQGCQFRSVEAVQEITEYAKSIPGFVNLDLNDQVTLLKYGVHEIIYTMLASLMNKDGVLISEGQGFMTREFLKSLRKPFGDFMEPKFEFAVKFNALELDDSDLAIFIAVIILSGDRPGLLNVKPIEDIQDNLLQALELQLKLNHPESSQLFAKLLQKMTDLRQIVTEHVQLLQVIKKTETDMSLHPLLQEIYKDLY
In short: (§1)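 Transfected HepG2 line; multiplexed reporter read-out. PXRE = cis library (48 TF sites); ERRg/FXR/PPARg = trans one-hybrid library (25 units). Dose series of 7, MTC downward by 3x.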

[2] = tested on: CYP2B6; experiment: CLZD_CYP2B6: Change in expression of CYP2B6 (primary human hepatocytes); assay type: cell-based; details: 24 hr
In short: (§2)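 Primary human hepatocyte cultures were exposed to test chemicals at 5 concentrations (0.004-40 µM) for 6, 24 or 48 hr.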

[3] = target: T2, PPARg (PPARG) (Homo sapiens, UniProt P37231); experiment: NVS_NR_hPPARg: Human PPARg Fluorescent Ligand (cell-free HTS); assay type: binding
T2 sequence (P37231 1-505): T1 sequence (P37231 1-505)
Source text: (§3) These are a collection of biochemical assays measuring binding constants and enzyme inhibition values. Chemicals were initially screened at a single concentration in duplicate wells at a concentration of 10 [drawing 63] M for cytochrome P-450 assays and 25 [drawing 64] M for all others. […] These assays were run by Caliper Life Sciences (Hanover, MD) under contract to EPA. Short assay descriptions are available at: http://www.caliperls.com/products/contract-research/in-vitro/.
(§4) Cell-free HTS Assays: A collection of biochemical assays measuring binding constants and enzyme inhibition values. […] These assays were run by Caliper Life Sciences (Hanover, MD) under contract to EPA. Short assay descriptions are available at http://www.caliperls.com/products/contract-research/in-vitro/. Values for all endpoints were imported into GeneData Screener (Basel, Switzerland) and normalised to solvent controls from the same plate as the tested compounds and expressed as percent of neutral control. Concentration-response curves were fit in GeneData Screener (Basel, Switzerland) Condeseo module using the Hill equation and AC50 values were determined. […] Detailed description of the methods, data and analysis methods for this dataset are described in a separate publication.

[4] = target: T3, PXR (NR1I2) (Homo sapiens, UniProt O75469); experiment: NVS_NR_hPXR: Human PXR Fluormone PXR (SXR) green (cell-free HTS); assay type: binding
T3 sequence (O75469 1-434): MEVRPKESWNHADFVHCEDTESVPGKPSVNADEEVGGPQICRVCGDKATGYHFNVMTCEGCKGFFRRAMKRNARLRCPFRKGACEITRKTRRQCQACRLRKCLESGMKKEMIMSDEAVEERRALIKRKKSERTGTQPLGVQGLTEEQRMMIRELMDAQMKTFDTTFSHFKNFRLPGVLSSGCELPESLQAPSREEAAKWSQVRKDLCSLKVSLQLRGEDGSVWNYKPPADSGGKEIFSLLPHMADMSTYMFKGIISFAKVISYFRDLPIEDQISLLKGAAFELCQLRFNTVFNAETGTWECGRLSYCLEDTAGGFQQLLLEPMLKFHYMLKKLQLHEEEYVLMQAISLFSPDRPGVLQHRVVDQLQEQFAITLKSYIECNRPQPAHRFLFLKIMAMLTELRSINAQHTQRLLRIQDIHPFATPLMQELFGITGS
In short: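 Cell-free biochemical binding assays; chemicals first screened at a single concentration of 25 […] M in duplicate wells. Signals normalised to same-plate solvent controls as percent of neutral control, and AC50 values came from Hill-equation fits of concentration-response curves.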

[5] = target: T3, PXR (NR1I2); experiment: ATG_PXRE_CIS: Factorial reporter gene assay (HepG2); assay type: cell-based; parameters: endogenous in cells; host or cells: HepG2; details: HepG2
In short: as §1

[6] = tested on: AR (androgen receptor); experiment: NVS_NR_hAR: Human AR 3H-Methyltrienolone (cell-free HTS); assay type: binding
Source text: as §3, §4

[7] = tested on: CYP3A4; experiment: CLZD_CYP3A4: Change in expression of CYP3A4 (primary human hepatocytes); assay type: cell-based; details: 24 hr
In short: as §2

[8] = target: T4, PPARA (peroxisome proliferator-activated receptor alpha) (Homo sapiens, UniProt Q07869); experiment: ATG_PPARa_TRANS: Factorial reporter gene assay (HepG2); assay type: cell-based; parameters: scale not given here
T4 construct: expressed in transfected cells; host or cells: HepG2
T4 sequence (Q07869 1-468): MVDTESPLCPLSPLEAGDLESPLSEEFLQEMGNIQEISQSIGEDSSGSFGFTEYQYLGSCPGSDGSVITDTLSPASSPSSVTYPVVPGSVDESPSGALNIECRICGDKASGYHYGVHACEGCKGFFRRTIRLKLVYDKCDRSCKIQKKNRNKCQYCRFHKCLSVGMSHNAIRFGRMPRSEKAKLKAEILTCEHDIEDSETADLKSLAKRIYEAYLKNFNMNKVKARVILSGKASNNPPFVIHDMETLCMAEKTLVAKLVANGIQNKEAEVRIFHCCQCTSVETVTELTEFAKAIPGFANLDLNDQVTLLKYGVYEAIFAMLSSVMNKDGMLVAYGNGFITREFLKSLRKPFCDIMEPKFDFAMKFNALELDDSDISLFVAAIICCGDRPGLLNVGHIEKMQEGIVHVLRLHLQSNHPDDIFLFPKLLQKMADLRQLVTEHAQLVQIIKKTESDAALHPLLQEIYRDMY
Method: A multiple reporter transcription unit (MRTU) library consisting of 48 transcription factor binding sites was transfected into the HepG2 human liver hepatoma cell line. In addition to the cis-acting reporter genes (CIS), a modification of the approach was used to generate a trans-system (TRANS) with a mammalian one-hybrid assay consisting of an additional 25 MRTU library reporting the activity of nuclear receptor super-family members. […] These assays were performed by Attagene Inc. (Morrisville NC) under contract to EPA.
In addition to the cis-acting reporter genes (CIS), a modification of the approach was used to generate a trans-system (TRANS) with a mammalian one-hybrid assay consisting of an additional 25 MRTU library reporting the activity of nuclear receptor super-family members. […] Chemicals were then tested in the CIS and TRANS assays at seven concentrations starting at the MTC and followed by three-fold serial dilutions. These assays were performed by Attagene Inc. (Morrisville NC) under contract to EPA. Detailed description of the methods, data and analysis methods for this dataset will be presented in a separate publication.

SMILES | ATG_PPARg_TRANS [1] | CLZD_CYP2B6_24 [2] | NVS_NR_hPPARg [3] | NVS_NR_hPXR [4] | ATG_PXRE_CIS [5] | NVS_NR_hAR [6] | CLZD_CYP3A4_24 [7] | ATG_PPARa_TRANS [8]
O=S(=O)(O)C(F)(F)C(F)(F)C(F)(F)C(F)(F)C(F)(F)C(F)(F)C(F)(F)C(F)(F)F [r240] | 4.585 | 4.97 | 4.932 | 4.496 | 4.745 | 4.625 | 4.541 | –
O=C(O)C(F)(F)C(F)(F)C(F)(F)C(F)(F)C(F)(F)C(F)(F)C(F)(F)F [r241] | – | – | – | – | 4.367 | – | – | 4.377
